Test [1] is described as follows: DRUGMATRIX: Phosphodiesterase PDE4 enzyme inhibition (substrate: [3H]cAMP + cAMP). The following applies: u-937, Not Active = under 50% inhibition at 10 µM.
Test [2] addresses Sodium-dependent dopamine transporter (Homo sapiens, UniProt Q01959). In words: DRUGMATRIX: Dopamine Transporter radioligand binding (ligand: [125I] RTI-55). The format is cell membranes, CHO-K1, Membrane. The following applies: cho-k1; Not Active = under 50% inhibition at 10 µM.
The target of test [3] is 5-hydroxytryptamine receptor 2B (Homo sapiens, UniProt P41595). The format is cell membranes, CHO-K1, Membrane. The following applies: for Ki: read-out: Ki. On all read-outs here: in other assays of this panel Not Active means under 50% inhibition at 10 µM.
5-hydroxytryptamine receptor 2B, sequence (P41595 whole entry): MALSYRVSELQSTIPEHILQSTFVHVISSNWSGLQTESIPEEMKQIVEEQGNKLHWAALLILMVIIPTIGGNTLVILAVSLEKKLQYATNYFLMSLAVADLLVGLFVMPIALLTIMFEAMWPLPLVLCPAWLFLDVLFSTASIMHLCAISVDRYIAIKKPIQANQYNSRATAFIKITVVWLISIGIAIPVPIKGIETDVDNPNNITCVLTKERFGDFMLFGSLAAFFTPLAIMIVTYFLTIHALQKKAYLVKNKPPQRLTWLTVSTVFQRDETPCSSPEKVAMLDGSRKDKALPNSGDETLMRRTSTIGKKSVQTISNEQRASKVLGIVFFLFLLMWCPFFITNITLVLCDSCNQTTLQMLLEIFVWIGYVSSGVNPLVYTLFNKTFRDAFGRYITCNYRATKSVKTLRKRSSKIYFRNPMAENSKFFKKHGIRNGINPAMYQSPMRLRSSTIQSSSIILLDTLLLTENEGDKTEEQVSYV
The target of the next test is T1, Adenosine receptor A3 (Homo sapiens, UniProt P0DMS8).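 Further: radioligand binding assay with AB-MECA serving as the labeled ligand; in other assays of this panel Not Active means under 50% inhibition at 10 µM.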
T1 sequence (P0DMS8 whole entry): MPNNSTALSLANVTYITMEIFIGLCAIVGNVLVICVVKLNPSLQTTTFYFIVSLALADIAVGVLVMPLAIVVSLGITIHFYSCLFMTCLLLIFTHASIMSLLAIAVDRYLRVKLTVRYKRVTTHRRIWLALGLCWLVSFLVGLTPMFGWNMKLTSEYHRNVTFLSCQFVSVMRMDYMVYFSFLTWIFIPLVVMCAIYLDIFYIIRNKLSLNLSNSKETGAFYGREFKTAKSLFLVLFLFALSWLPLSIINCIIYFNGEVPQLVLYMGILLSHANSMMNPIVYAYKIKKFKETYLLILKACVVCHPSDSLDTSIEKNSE
The format is cell membranes, CHO-K1, Membrane.

The nature of test [4]: DRUGMATRIX: Platelet-Derived Growth Factor (PDGF) radioligand binding (ligand: [125I] PDGF). The format is cell-based. The note with it: nih3t3; Not Active = under 50% inhibition at 10 µM.
Test [5] can be described thus: DRUGMATRIX: GABAA, Chloride Channel, TBOB radioligand binding (ligand: [3H] TBOB). The format is cell membranes, Rattus norvegicus, Wistar, Cerebral cortex, Membrane. The note with it: Not Active = under 50% inhibition at 10 µM.

Molecules are shown by their SMILES.

By IC50 is commonly meant the point on the concentration scale where inhibition reaches its midpoint. By Ki is commonly meant the dissociation constant of the complex between target and ligand, obtained from inhibition or displacement.

Sodium-dependent dopamine transporter, sequence (Q01959 whole entry): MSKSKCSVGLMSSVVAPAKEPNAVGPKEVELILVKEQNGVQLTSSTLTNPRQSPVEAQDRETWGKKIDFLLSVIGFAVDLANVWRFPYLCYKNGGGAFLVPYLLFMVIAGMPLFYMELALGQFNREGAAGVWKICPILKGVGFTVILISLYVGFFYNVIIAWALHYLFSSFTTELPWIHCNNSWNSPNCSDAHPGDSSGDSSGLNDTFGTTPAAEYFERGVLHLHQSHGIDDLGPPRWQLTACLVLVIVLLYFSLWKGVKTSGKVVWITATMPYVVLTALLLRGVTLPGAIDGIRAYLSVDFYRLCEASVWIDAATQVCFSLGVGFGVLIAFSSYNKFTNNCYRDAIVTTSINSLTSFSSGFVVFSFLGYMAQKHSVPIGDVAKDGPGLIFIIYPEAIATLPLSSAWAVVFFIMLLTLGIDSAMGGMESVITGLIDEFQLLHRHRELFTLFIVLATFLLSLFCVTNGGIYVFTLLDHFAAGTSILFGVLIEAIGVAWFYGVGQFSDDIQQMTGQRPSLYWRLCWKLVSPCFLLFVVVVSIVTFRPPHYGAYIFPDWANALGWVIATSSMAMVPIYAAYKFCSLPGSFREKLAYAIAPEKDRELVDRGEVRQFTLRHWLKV

Turning to `Nn1nnc2ccccc21`, the 50% inhibitory concentration (IC50) result (in test [1]; in test [2]; in test [3] (cho-k1); on Adenosine receptor A3 (cho-k1); in test [4]; in test [5]) was “Not Active” each time. Besides, the Ki result in test [1], in test [4] and in test [5] was “Not Active” each time.

As to `CC[C@]1(O)CC[C@H]2[C@@H]3CCC4=CCCC[C@@H]4[C@H]3CC[C@@]21C`, the IC50 entry (in test [1]; in test [2]; in test [3] (cho-k1); at Adenosine receptor A3 (cho-k1); in test [4]; in test [5]) was “Not Active” each time. Further, the inhibition constant (Ki) result in test [1], in test [4] and in test [5] was “Not Active” each time.

`N[C@@H](Cc1ccc(F)cc1)C(=O)O`: the IC50 entry (in test [1]; in test [2]; in test [3] (cho-k1); against Adenosine receptor A3 (cho-k1); in test [4]; in test [5]) was “Not Active” in each case. Besides, the Ki entry in test [1], in test [4] and in test [5] was “Not Active” each time.

As for `CCOC(=O)[C@H](CCc1ccccc1)N[C@@H](C)C(=O)N1Cc2ccccc2C[C@H]1C(=O)O`, the half-maximal inhibitory concentration (IC50) result (in test [1]; in test [2]; in test [3] (cho-k1); on Adenosine receptor A3 (cho-k1); in test [4]; in test [5]) was “Not Active” each time. Further, the Ki result in test [1], in test [4] and in test [5] was “Not Active” each time.

Turning to `O=C(c1ccccc1Cl)N1CCC(Cc2ccccc2)CC1`, the IC50 entry in test [1] is “Not Active”; in test [2] it was “Not Active”; in test [3] (read-out: IC50), 1510 nM; on Adenosine receptor A3 (cho-k1), “Not Active”; in test [4], “Not Active”; in test [5], “Not Active”. The Ki result was “Not Active” in test [1], 960 nM in test [3], “Not Active” in test [4] and “Not Active” in test [5].

Turning to `CCOC(=O)[C@H](CCc1ccccc1)N[C@@H](C)C(=O)N1CCC[C@H]1C(=O)O`, the IC50 result (in test [1]; in test [2]; in test [3] (cho-k1); against Adenosine receptor A3 (cho-k1); in test [4]; in test [5]) was “Not Active” in each case. For the same compound, the Ki entry in test [1], in test [4] and in test [5] was “Not Active” in each case.

For the compound `Clc1cc2c(cc1Cl)Oc1cc(Cl)c(Cl)cc1O2` [2,3,7,8-TETRACHLORODIBENZO-P-DIOXIN], the half-inhibitory concentration (IC50) entry (in test [1]; in test [2]; in test [3] (cho-k1); against Adenosine receptor A3 (cho-k1); in test [4]; in test [5]) was “Not Active” each time. Also, the Ki result in test [1], in test [4] and in test [5] was “Not Active” throughout.

With `C=C1/C(=C\C=C2/CCC[C@]3(C)[C@@H]([C@H](C)CCCC(C)C)CC[C@@H]23)C[C@@H](O)C[C@@H]1O` [ALFACALCIDOL], the half-maximal inhibitory concentration (IC50) entry (in test [1]; in test [2]; in test [3] (cho-k1); against Adenosine receptor A3 (cho-k1); in test [4]; in test [5]) was “Not Active” each time. Also, the inhibition constant (Ki) entry in test [1], in test [4] and in test [5] was “Not Active” throughout.

As to `CCCCCC[C@H]1C(=O)O[C@H](C)[C@H](NC(=O)c2cccc(NC=O)c2O)C(=O)O[C@@H](C)[C@@H]1OC(=O)CC(C)C` [ANTIMYCIN A], the half-maximal inhibitory concentration (IC50) entry (in test [1]; in test [2]; in test [3] (cho-k1); against Adenosine receptor A3 (cho-k1); in test [4]; in test [5]) was “Not Active” in each case. In addition, the inhibition constant (Ki) result in test [1], in test [4] and in test [5] was “Not Active” in each case.

On to `C[C@@H]1CC[C@H]2[C@@H](C)C(=O)O[C@@H]3O[C@@]4(C)CC[C@@H]1[C@]32OO4` [ARTEMISININ], for which the half-maximal inhibitory concentration (IC50) entry (in test [1]; in test [2]; in test [3] (cho-k1); against Adenosine receptor A3 (cho-k1); in test [4]; in test [5]) was “Not Active” each time. The Ki entry in test [1], in test [4] and in test [5] was “Not Active” each time.

Take `CO[C@H]1[C@@H](O)[C@H](N)[C@@H](O[C@H]2O[C@H]([C@H](C)N)CC[C@H]2N)[C@H](O)[C@@H]1N(C)C(=O)CN` [ASTROMICIN]: the IC50 entry (in test [1]; in test [2]; in test [3] (cho-k1); at Adenosine receptor A3 (cho-k1); in test [4]; in test [5]) was “Not Active” in each case. Moreover, the Ki result in test [1], in test [4] and in test [5] was “Not Active” throughout.

Regarding `[N-]=[N+]=CC(=O)OC[C@H](N)C(=O)O` [AZASERINE], the concentration for half-maximal inhibition (IC50) entry (in test [1]; in test [2]; in test [3] (cho-k1); on Adenosine receptor A3 (cho-k1); in test [4]; in test [5]) was “Not Active” throughout. Moreover, the Ki entry in test [1], in test [4] and in test [5] was “Not Active” each time.

For `CC[C@H]1OC(=O)[C@H](C)[C@@H](O[C@H]2C[C@@](C)(OC)[C@@H](O)[C@H](C)O2)[C@H](C)[C@@H](O[C@@H]2O[C@H](C)C[C@H](N(C)C)[C@H]2O)[C@](C)(O)C[C@@H](C)CN(C)[C@H](C)[C@@H](O)[C@]1(C)O` [AZITHROMYCIN], the half-maximal inhibitory concentration (IC50) result (in test [1]; in test [2]; in test [3] (cho-k1); on Adenosine receptor A3 (cho-k1); in test [4]; in test [5]) was “Not Active” each time. The inhibition constant Ki result in test [1], in test [4] and in test [5] was “Not Active” throughout.

Take `CC(C)(C)c1ccc(S(=O)(=O)/C=C/C#N)cc1` [BAY-11-7085]: the 50% inhibitory concentration (IC50) result (in test [1]; in test [2]; in test [3] (cho-k1); against Adenosine receptor A3 (cho-k1); in test [4]; in test [5]) was “Not Active” in each case. Moreover, the Ki result in test [1], in test [4] and in test [5] was “Not Active” each time.

As for `CCc1oc2ccccc2c1C(=O)c1cc(Br)c(O)c(Br)c1` [BENZBROMARONE], the half-maximal inhibitory concentration (IC50) in test [1] (read-out: IC50) is 1060 nM; in test [2] it was “Not Active”; in test [3] (read-out: IC50) it was 1800 nM; on Adenosine receptor A3 (read-out: IC50), 5.22 µM; in test [4], “Not Active”; in test [5], “Not Active”. Further, the Ki is 1150 nM in test [3], 2950 nM on Adenosine receptor A3 (read-out: Ki), “Not Active” in test [4] and “Not Active” in test [5].

On to `O=c1cc(-c2ccccc2)oc2ccc3ccccc3c12` [BETA-NAPHTHOFLAVONE], for which the half-inhibitory concentration (IC50) entry (in test [1]; in test [2]; in test [3] (cho-k1); at Adenosine receptor A3 (cho-k1); in test [4]; in test [5]) was “Not Active” each time. Further, the inhibition constant Ki entry in test [1], in test [4] and in test [5] was “Not Active” each time.

As for `CC(C)C[C@H]1C(=O)N2CCC[C@H]2[C@]2(O)O[C@](NC(=O)[C@@H]3C=C4c5cccc6[nH]c(Br)c(c56)C[C@H]4N(C)C3)(C(C)C)C(=O)N12` [BROMOCRIPTINE], the IC50 entry in test [1] is “Not Active”; in test [2], “Not Active”; in test [3] (read-out: IC50) it was 8.32 nM; at Adenosine receptor A3 (cho-k1), “Not Active”; in test [4], “Not Active”; in test [5], “Not Active”. Also, the Ki entry in test [1] is “Not Active”; in test [3], 5.29 nM; in test [4], “Not Active”; in test [5], “Not Active”.

As to `CS(=O)(=O)OCCCCOS(C)(=O)=O` [BUSULFAN], the IC50 entry (in test [1]; in test [2]; in test [3] (cho-k1); at Adenosine receptor A3 (cho-k1); in test [4]; in test [5]) was “Not Active” in each case. The inhibitory constant (Ki) result in test [1], in test [4] and in test [5] was “Not Active” each time.

As for `O=C(/C=C/c1ccc(O)c(O)c1)OCCc1ccccc1` [CAFFEIC ACID PHENETHYL ESTER], the IC50 result (in test [1]; in test [2]; in test [3] (cho-k1); against Adenosine receptor A3 (cho-k1); in test [4]; in test [5]) was “Not Active” in each case. Also, the Ki result in test [1], in test [4] and in test [5] was “Not Active” each time.

Regarding `COc1cc(CNC(=O)CCCC/C=C/C(C)C)ccc1O` [CAPSAICIN], the IC50 result (in test [1]; in test [2]; in test [3] (cho-k1); on Adenosine receptor A3 (cho-k1); in test [4]; in test [5]) was “Not Active” in each case. The Ki entry in test [1], in test [4] and in test [5] was “Not Active” throughout.

The values are drawn from ChEMBL document CHEMBL1909046, “DrugMatrix in vitro pharmacology data”.
